Experimental data published in ChEMBL document CHEMBL5131391, “One-pot three-component synthesis of novel pyrazolo[3,4-b]pyridines as potent antileukemic agents” (Eur J Med Chem, 2022).

Legend:
Assay type in all cases: functional
RPMI-8226 [1] = assay: Cytostatic activity in human RPMI-8226 cells assessed as tumor growth inhibition measured after 48 hrs by NCI protocol based SRB assay
NCI-H23 = assay: Cytostatic activity in human NCI-H23 cells assessed as tumor growth inhibition measured after 48 hrs by NCI protocol based SRB assay
OVCAR-3 [2] = assay: Cytostatic activity in human OVCAR-3 cells assessed as tumor growth inhibition measured after 48 hrs by NCI protocol based SRB assay
U-251 = assay: Cytostatic activity in human U-251 cells assessed as tumor growth inhibition measured after 48 hrs by NCI protocol based SRB assay
SK-MEL-5 = assay: Cytostatic activity in human SK-MEL-5 cells assessed as tumor growth inhibition measured after 48 hrs by NCI protocol based SRB assay
SW-620 [3] = assay: Antiproliferative activity against human SW-620 cells assessed as growth inhibition measured after 48 hrs by NCI protocol based SRB assay
RPMI-8226 [4] = assay: Antiproliferative activity against human RPMI-8226 cells assessed as growth inhibition measured after 48 hrs by NCI protocol based SRB assay
NCI-H522 = assay: Cytostatic activity in human NCI-H522 cells assessed as tumor growth inhibition measured after 48 hrs by NCI protocol based SRB assay
NCI/ADR-RES = assay: Antiproliferative activity against human NCl/ADR-RES cells assessed as growth inhibition measured after 48 hrs by NCI protocol based SRB assay
UACC-257 = assay: Cytostatic activity in human UACC-257 cells assessed as tumor growth inhibition measured after 48 hrs by NCI protocol based SRB assay
SK-OV-3 = assay: Cytostatic activity in human SK-OV-3 cells assessed as tumor growth inhibition measured after 48 hrs by NCI protocol based SRB assay
SN12C = assay: Antiproliferative activity against human SN12C cells assessed as growth inhibition measured after 48 hrs by NCI protocol based SRB assay
MDA-MB-435 [5] = assay: Antiproliferative activity against human MDA-MB-435 cells assessed as growth inhibition measured after 48 hrs by NCI protocol based SRB assay
MDA-MB-435 [6] = assay: Cytostatic activity in human MDA-MB-435 cells assessed as tumor growth inhibition measured after 48 hrs by NCI protocol based SRB assay
UACC-62 = assay: Cytostatic activity in human UACC-62 cells assessed as tumor growth inhibition measured after 48 hrs by NCI protocol based SRB assay
MDA-MB-231 = assay: Antiproliferative activity against human MDA-MB-231 cells assessed as growth inhibition measured after 48 hrs by NCI protocol based SRB assay
NCI-H322M = assay: Cytostatic activity in human NCI-H322M cells assessed as tumor growth inhibition measured after 48 hrs by NCI protocol based SRB assay
SW-620 [7] = assay: Cytostatic activity in human SW-620 cells assessed as tumor growth inhibition measured after 48 hrs by NCI protocol based SRB assay
PC-3 = assay: Antiproliferative activity against human PC-3 cells assessed as growth inhibition measured after 48 hrs by NCI protocol based SRB assay
T47D = assay: Antiproliferative activity against human T47D cells assessed as growth inhibition measured after 48 hrs by NCI protocol based SRB assay
NCI-H226 = assay: Antiproliferative activity against human NCI-H226 cells assessed as growth inhibition measured after 48 hrs by NCI protocol based SRB assay
SF-268 [8] = assay: Antiproliferative activity against human SF-268 cells assessed as growth inhibition measured after 48 hrs by NCI protocol based SRB assay
HCT-15 = assay: Antiproliferative activity against human HCT-15 cells assessed as growth inhibition measured after 48 hrs by NCI protocol based SRB assay
UO-31 = assay: Antiproliferative activity against human UO-31 cells assessed as growth inhibition measured after 48 hrs by NCI protocol based SRB assay
DU-145 [9] = assay: Cytostatic activity in human DU-145 cells assessed as tumor growth inhibition measured after 48 hrs by NCI protocol based SRB assay
HOP-62 [10] = assay: Cytostatic activity in human HOP-62 cells assessed as tumor growth inhibition measured after 48 hrs by NCI protocol based SRB assay
SF-268 [11] = assay: Cytostatic activity in human SF-268 cells assessed as tumor growth inhibition measured after 48 hrs by NCI protocol based SRB assay
K562 = assay: Antiproliferative activity against human K562 cells assessed as growth inhibition measured after 48 hrs by NCI protocol based SRB assay
SNB-19 = assay: Antiproliferative activity against human SNB-19 cells assessed as growth inhibition measured after 48 hrs by NCI protocol based SRB assay
A498 = assay: Antiproliferative activity against human A498 cells assessed as growth inhibition measured after 48 hrs by NCI protocol based SRB assay
Hs-578T = assay: Antiproliferative activity against human Hs-578T cells assessed as growth inhibition measured after 48 hrs by NCI protocol based SRB assay
HCC 2998 = assay: Antiproliferative activity against human HCC 2998 cells assessed as growth inhibition measured after 48 hrs by NCI protocol based SRB assay
DU-145 [12] = assay: Antiproliferative activity against human DU-145 cells assessed as growth inhibition measured after 48 hrs by NCI protocol based SRB assay
ACHN = assay: Antiproliferative activity against human ACHN cells assessed as growth inhibition measured after 48 hrs by NCI protocol based SRB assay
OVCAR-3 [13] = assay: Antiproliferative activity against human OVCAR-3 cells assessed as growth inhibition measured after 48 hrs by NCI protocol based SRB assay
SF-539 = assay: Antiproliferative activity against human SF-539 cells assessed as growth inhibition measured after 48 hrs by NCI protocol based SRB assay
MCF7 = assay: Cytostatic activity in human MCF7 cells assessed as tumor growth inhibition measured after 48 hrs by NCI protocol based SRB assay
HOP-62 [14] = assay: Antiproliferative activity against human HOP-62 cells assessed as growth inhibition measured after 48 hrs by NCI protocol based SRB assay
HOP-92 = assay: Antiproliferative activity against human HOP-92 cells assessed as growth inhibition measured after 48 hrs by NCI protocol based SRB assay
[15] = read-out: LC50 (the source's name)

N#Cc1c(-c2ccccc2)nc2c(c(-c3ccccc3)nn2-c2ccccc2)c1-c1ccc(O)cc1
TGI (RPMI-8226 [1]): 17.9 µM
TGI (NCI-H23): 3.84 µM
TGI (OVCAR-3 [2]): 4.45 µM
TGI (U-251): 3.97 µM
TGI (SK-MEL-5): 3.19 µM
GI50 (SW-620 [3]): 1.86 µM
CC50 (SW-620 [3]; [15]): 6.72 µM
GI50 (RPMI-8226 [4]): 2.42 µM
CC50 (RPMI-8226 [4]; [15]): > 100 µM
TGI (NCI-H522): 6.03 µM
GI50 (NCI/ADR-RES): 2.27 µM
CC50 (NCI/ADR-RES; [15]): 2.95 µM
TGI (UACC-257): 12.1 µM
TGI (SK-OV-3): 8.48 µM
GI50 (SN12C): 1.64 µM
CC50 (SN12C; [15]): 5.63 µM
GI50 (MDA-MB-435 [5]): 1.86 µM
CC50 (MDA-MB-435 [5]; [15]): 7.39 µM
TGI (MDA-MB-435 [6]): 3.71 µM
TGI (UACC-62): 3.18 µM
GI50 (MDA-MB-231): 1.7 µM
CC50 (MDA-MB-231; [15]): 6.44 µM
TGI (NCI-H322M): 2.96 µM
TGI (SW-620 [7]): 3.53 µM
GI50 (PC-3): 1.82 µM
CC50 (PC-3; [15]): 7.86 µM
GI50 (T47D): 3.05 µM
CC50 (T47D; [15]): > 100 µM
GI50 (NCI-H226): 1.97 µM
CC50 (NCI-H226; [15]): 37.3 µM
GI50 (SF-268 [8]): 2.83 µM
CC50 (SF-268 [8]; [15]): 47.2 µM
GI50 (HCT-15): 1.62 µM
CC50 (HCT-15; [15]): 8.9 µM
GI50 (UO-31): 2.02 µM
CC50 (UO-31; [15]): 8.59 µM
TGI (DU-145 [9]): 8.53 µM
TGI (HOP-62 [10]): 4.49 µM
TGI (SF-268 [11]): 9.14 µM
GI50 (K562): 2.68 µM
CC50 (K562; [15]): > 100 µM
GI50 (SNB-19): 1.9 µM
CC50 (SNB-19; [15]): 7.57 µM
GI50 (A498): 1.66 µM
CC50 (A498; [15]): 5.69 µM
GI50 (Hs-578T): 1.41 µM
CC50 (Hs-578T; [15]): 43.8 µM
GI50 (HCC 2998): 1.84 µM
CC50 (HCC 2998; [15]): 6.53 µM
GI50 (DU-145 [12]): 2.62 µM
CC50 (DU-145 [12]; [15]): 37.7 µM
GI50 (ACHN): 2.24 µM
CC50 (ACHN; [15]): 20.5 µM
GI50 (OVCAR-3 [13]): 2 µM
CC50 (OVCAR-3 [13]; [15]): 9.91 µM
GI50 (SF-539): 1.25 µM
CC50 (SF-539; [15]): 6.1 µM
TGI (MCF7): 4.76 µM
GI50 (HOP-62 [14]): 2.12 µM
CC50 (HOP-62 [14]; [15]): 9.53 µM
GI50 (HOP-92): 2.06 µM
CC50 (HOP-92; [15]): 8.6 µM
